Experimental data as given in PubChem BioAssay AID1963970 (Molecular Pharmacology Branch, DTP, NCI, 2024).

Tested on: 931267-113-T-J1-PDC multicell spheroid viability
Assay: Anticancer human tumor 931267-113-T-J1-PDC patient-derived colon adenocarcinoma cell line growth inhibition [PI3K]
Conditions: for IC50: curve of first compound; for viability, T/C: stronger effect = lower value
In short: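 Targeted small molecules plus PI3K inhibitors, half-log dose series from Cmax (default top 10 microM), were applied to heterotypic spheroids of cancer cells with HUVEC and MSCs. Viability indicated growth inhibition.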

[1] = second compound 0.0316 µM, first compound 0.0316 µM
[2] = second compound 0.0316 µM, first compound 0.1 µM
[3] = second compound 0.1 µM, first compound 0.0316 µM
[4] = second compound 0.1 µM, first compound 0.1 µM
[5] = second compound 0.316 µM, first compound 0.0316 µM
[6] = second compound 0.316 µM, first compound 0.1 µM
[7] = second compound 1 µM, first compound 0.0316 µM
[8] = second compound 1 µM, first compound 0.1 µM
[9] = second compound 3.16 µM, first compound 0.0316 µM
[10] = second compound 3.16 µM, first compound 0.1 µM
[11] = second compound 10 µM, first compound 0.0316 µM
[12] = second compound 10 µM, first compound 0.1 µM
[13] = second compound 0.0316 µM, first compound 0.316 µM
[14] = second compound 0.0316 µM, first compound 1 µM
[15] = second compound 0.0316 µM, first compound 3.16 µM
[16] = second compound 0.0316 µM, first compound 10 µM
[17] = second compound 0.1 µM, first compound 0.316 µM
[18] = second compound 0.1 µM, first compound 1 µM
[19] = second compound 0.1 µM, first compound 3.16 µM
[20] = second compound 0.1 µM, first compound 10 µM
[21] = second compound 0.316 µM, first compound 0.316 µM
[22] = second compound 0.316 µM, first compound 1 µM
[23] = second compound 0.316 µM, first compound 3.16 µM
[24] = second compound 0.316 µM, first compound 10 µM
[25] = second compound 1 µM, first compound 0.316 µM
[26] = second compound 1 µM, first compound 1 µM
[27] = second compound 1 µM, first compound 3.16 µM
[28] = second compound 1 µM, first compound 10 µM
[29] = second compound 3.16 µM, first compound 0.316 µM
[30] = second compound 3.16 µM, first compound 1 µM
[31] = second compound 3.16 µM, first compound 3.16 µM
[32] = second compound 3.16 µM, first compound 10 µM
[33] = second compound 10 µM, first compound 0.316 µM
[34] = second compound 10 µM, first compound 1 µM
[35] = second compound 10 µM, first compound 3.16 µM
[36] = second compound 10 µM, first compound 10 µM
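Also: viability read 7 days after compound addition.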

Work on CC(C)n1nc(-c2ccc3oc(N)nc3c2)c2c(N)ncnc21 + Cc1nc(NC(=O)N2CCCC2C(N)=O)sc1-c1ccnc(C(C)(C)C(F)(F)F)c1 yielded an IC50 (second compound 0.0316 µM) of 0.0915 µM, an IC50 (second compound 0.1 µM) of 0.0777 µM and an IC50 (second compound 0.316 µM) of 0.0697 µM. It also gave an IC50 (second compound 1 µM) of 0.0569 µM, an IC50 (second compound 3.16 µM) of 0.0249 µM and an IC50 (second compound 10 µM) of 0.00831 µM. It also gave a viability, T/C (second compound 0.0316 µM, first compound 0.000316 µM) of 97.2%, a viability, T/C (second compound 0.0316 µM, first compound 0.001 µM) of 84.3% and a viability, T/C (second compound 0.0316 µM, first compound 0.00316 µM) of 81.5%. It also gave a viability, T/C (second compound 0.0316 µM, first compound 0.01 µM) of 101%, a viability, T/C [1] of 78.3% and a viability, T/C [2] of 47.6%. The viability, T/C (second compound 0.1 µM, first compound 0.000316 µM) was 97.3%, the viability, T/C (second compound 0.1 µM, first compound 0.001 µM) was 91.1% and the viability, T/C (second compound 0.1 µM, first compound 0.00316 µM) was 89.9%. The viability, T/C (second compound 0.1 µM, first compound 0.01 µM) was 92.6%, the viability, T/C [3] was 79.7% and the viability, T/C [4] was 41.5%. For the same molecule, the viability, T/C (second compound 0.316 µM, first compound 0.000316 µM) was 88.8%, the viability, T/C (second compound 0.316 µM, first compound 0.001 µM) was 91.9% and the viability, T/C (second compound 0.316 µM, first compound 0.00316 µM) was 86.8%. It also gave a viability, T/C (second compound 0.316 µM, first compound 0.01 µM) of 85.5%, a viability, T/C [5] of 68.4% and a viability, T/C [6] of 41.5%. It also gave a viability, T/C (second compound 1 µM, first compound 0.000316 µM) of 78.9%, a viability, T/C (second compound 1 µM, first compound 0.001 µM) of 72.3% and a viability, T/C (second compound 1 µM, first compound 0.00316 µM) of 72.7%. For the same molecule, the viability, T/C (second compound 1 µM, first compound 0.01 µM) was 66.8%, the viability, T/C [7] was 64.1% and the viability, T/C [8] was 38.3%. The viability, T/C (second compound 3.16 µM, first compound 0.000316 µM) was 68.8%, the viability, T/C (second compound 3.16 µM, first compound 0.001 µM) was 67.8% and the viability, T/C (second compound 3.16 µM, first compound 0.00316 µM) was 62.1%. For the same molecule, the viability, T/C (second compound 3.16 µM, first compound 0.01 µM) was 58.4%, the viability, T/C [9] was 48.4% and the viability, T/C [10] was 30.7%. The viability, T/C (second compound 10 µM, first compound 0.000316 µM) was 62.3%, the viability, T/C (second compound 10 µM, first compound 0.001 µM) was 52.3% and the viability, T/C (second compound 10 µM, first compound 0.00316 µM) was 55.6%. It also gave a viability, T/C (second compound 10 µM, first compound 0.01 µM) of 45.7%, a viability, T/C [11] of 44% and a viability, T/C [12] of 24.1%.

CCCS(=O)(=O)Nc1ccc(F)c(C(=O)c2c[nH]c3ncc(-c4ccc(Cl)cc4)cc23)c1F + Cc1nc(NC(=O)N2CCCC2C(N)=O)sc1-c1ccnc(C(C)(C)C(F)(F)F)c1 showed an IC50 (second compound 0.0316 µM) of 6.23 µM, an IC50 (second compound 0.1 µM) of 6.09 µM and an IC50 (second compound 0.316 µM) of 5.47 µM. For the same molecule, the IC50 (second compound 1 µM) was 5.38 µM, the IC50 (second compound 3.16 µM) was 4.53 µM and the IC50 (second compound 10 µM) was 2.39 µM. It also gave a viability, T/C [1] of 104%, a viability, T/C [2] of 98% and a viability, T/C [13] of 121%. The viability, T/C [14] was 131%, the viability, T/C [15] was 113% and the viability, T/C [16] was 6.2%. It also gave a viability, T/C [3] of 99.5%, a viability, T/C [4] of 105% and a viability, T/C [17] of 105%. For the same molecule, the viability, T/C [18] was 118%, the viability, T/C [19] was 120% and the viability, T/C [20] was 5.03%. The viability, T/C [5] was 100%, the viability, T/C [6] was 91% and the viability, T/C [21] was 95.7%. For the same molecule, the viability, T/C [22] was 108%, the viability, T/C [23] was 91.2% and the viability, T/C [24] was 4.47%. For the same molecule, the viability, T/C [7] was 87.8%, the viability, T/C [8] was 80.5% and the viability, T/C [25] was 91.5%. It also gave a viability, T/C [26] of 96.6%, a viability, T/C [27] of 89.6% and a viability, T/C [28] of 4.19%. It also gave a viability, T/C [9] of 69%, a viability, T/C [10] of 82.1% and a viability, T/C [29] of 77.7%. It also gave a viability, T/C [30] of 72.5%, a viability, T/C [31] of 70.7% and a viability, T/C [32] of 4.52%. The viability, T/C [11] was 61.2%, the viability, T/C [12] was 60.9% and the viability, T/C [33] was 65.3%. For the same molecule, the viability, T/C [34] was 63.7%, the viability, T/C [35] was 46% and the viability, T/C [36] was 3.36%.

In the case of CNC(=O)c1ccc(N2C(=S)N(c3ccc(C#N)c(C(F)(F)F)c3)C(=O)C2(C)C)cc1F + Cc1nc(NC(=O)N2CCCC2C(N)=O)sc1-c1ccnc(C(C)(C)C(F)(F)F)c1, the IC50 (second compound 0.0316 µM) is reported as greater than 10 µM, the IC50 (second compound 0.1 µM) is reported as greater than 10 µM and the IC50 (second compound 0.316 µM) is reported as greater than 10 µM. For the same molecule, the IC50 (second compound 1 µM) was greater than 10 µM, the IC50 (second compound 3.16 µM) was greater than 10 µM and the IC50 (second compound 10 µM) was 3.66 µM. For the same molecule, the viability, T/C [1] was 112%, the viability, T/C [2] was 85% and the viability, T/C [13] was 95.4%. For the same molecule, the viability, T/C [14] was 105%, the viability, T/C [15] was 101% and the viability, T/C [16] was 93.5%. It also gave a viability, T/C [3] of 94%, a viability, T/C [4] of 105% and a viability, T/C [17] of 98.7%. It also gave a viability, T/C [18] of 105%, a viability, T/C [19] of 99.5% and a viability, T/C [20] of 98.5%. For the same molecule, the viability, T/C [5] was 92.9%, the viability, T/C [6] was 75.9% and the viability, T/C [21] was 87.9%. For the same molecule, the viability, T/C [22] was 80.5%, the viability, T/C [23] was 89.3% and the viability, T/C [24] was 76.5%. For the same molecule, the viability, T/C [7] was 89.6%, the viability, T/C [8] was 66.4% and the viability, T/C [25] was 73.9%. It also gave a viability, T/C [26] of 85.1%, a viability, T/C [27] of 83.5% and a viability, T/C [28] of 76.2%. For the same molecule, the viability, T/C [9] was 71.2%, the viability, T/C [10] was 64.5% and the viability, T/C [29] was 73.8%. The viability, T/C [30] was 62.5%, the viability, T/C [31] was 77.2% and the viability, T/C [32] was 67.5%. The viability, T/C [11] was 59.7%, the viability, T/C [12] was 54.2% and the viability, T/C [33] was 56.2%. The viability, T/C [34] was 53.3%, the viability, T/C [35] was 56.4% and the viability, T/C [36] was 42.2%.
